“And” between values parts separate entries of the source, which are not always exact repeats. Identical values can stand only once.
Test system: DBA/1 mice, CIA model
Test: Collagen-induced arthritis model in mice
Type: in vivo, mouse
Conditions: QD
Description: Collagen-induced arthritis (CIA) model was performed at Bolder BioPATH, USA. Study design and animal usage was approved by Bolder BioPATH’s Institutional Animal Care and Use Committee. CIA was induced in 6–7 week old male DBA/1 mice with body weight of 15–26 g (Harlan, Inc) by intradermal injection of Freund’s Complete Adjuvant (Difco) containing bovine type II collagen (Bolder BioPATH) on day 0 and again on day 21 according to the standard protocol. […] After that mice were randomized into six groups: a control group of four, vehicle group and four treatment groups of ten mice each. […] Each paw was scored daily for inflammation. Therapeutic and prophylactic paws were considered. At study termination mice were euthanized by CO2 inhalation followed by cervical dislocation. Fore paws, hind paws, and knees were removed for microscopy.
Mice were weighed on arthritis days 1, 3, 5, 7, 9, and 11 (prior to necropsy). Daily clinical scores were given for each of the paws (right front, left front, right rear, left rear) on days 1–11 using the following criteria:
After 1–2 days in fixative and 4–5 days in 5% formic acid for decalcification, tissues were trimmed, processed for paraffin embedding, sectioned at 8 µm and stained with toluidine blue. Hind paws and knees were embedded and sectioned in the frontal plane. Two joints from each animal were processed for histopathology evaluation. The joints were then scored by two independent readers as indicated below. When scoring, severity of changes as well as number of individual joints affected were considered. When only 1–3 joints of the paws or ankles out of a possibility of numerous metacarpal/metatarsal/digit or tarsal/tibiotarsal joints were affected, an arbitrary assignment of a maximum score of 1, 2 or 3 for parameters below was given depending on severity of changes. If more than 3 joints were involved, the criteria below were applied to the most severely affected/majority of joints.

SMILES: CN(Cc1cnc2nc(N)nc(N)c2n1)c1ccc(C(=O)N[C@@H](CCC(=O)O)C(=O)O)cc1 [MTX, methotrexate, reference compound]
- % inhibition to Vehicle, Paw Score Total AUC Sum (d1-11) (1.5 mg/kg PO): 12%
- Paw Score Total AUC Sum (d1-11) (1.5 mg/kg PO, group Mean): 28.46
- Paw Score Total AUC Sum (d1-11) (1.5 mg/kg PO, individual animals): 19.25 and 28.75 and 18.25 and 23.38 and 30.63 and 34.25 and 31.00 and 24.88 and 33.25 and 41.00
- % inhibition to Vehicle, Average Paw Score (Day 1, 1.5 mg/kg PO): 0%
- Average Paw Score Per Arthritis Day (All Paws) (Day 1, 1.5 mg/kg PO, group Mean): 0.80
- Average Paw Score Per Arthritis Day (All Paws) (Day 1, 1.5 mg/kg PO, individual animals, 1.5 mg/kg): 0.50 and 1.00 and 1.50
- % inhibition to Vehicle, Average Paw Score (Day 2, 1.5 mg/kg PO): 19%
- Average Paw Score Per Arthritis Day (All Paws) (Day 2, 1.5 mg/kg PO, group Mean): 1.48
- Average Paw Score Per Arthritis Day (All Paws) (Day 2, 1.5 mg/kg PO, individual animals, 1.5 mg/kg): 0.50 and 1.25 and 1.50 and 1.00 and 2.00 and 1.75 and 2.50
- % inhibition to Vehicle, Average Paw Score (Day 3, 1.5 mg/kg PO): 20%
- Average Paw Score Per Arthritis Day (All Paws) (Day 3, 1.5 mg/kg PO, group Mean): 2.13
- Average Paw Score Per Arthritis Day (All Paws) (Day 3, 1.5 mg/kg PO, individual animals, 1.5 mg/kg): 0.75 and 1.75 and 2.00 and 2.50 and 2.75 and 3.00
- % inhibition to Vehicle, Average Paw Score (Day 4, 1.5 mg/kg PO): 10%
- Average Paw Score Per Arthritis Day (All Paws) (Day 4, 1.5 mg/kg PO, group Mean): 2.85
- Average Paw Score Per Arthritis Day (All Paws) (Day 4, 1.5 mg/kg PO, individual animals, 1.5 mg/kg): 1.75 and 3.00 and 2.00 and 2.25 and 2.50 and 2.75 and 4.00
- % inhibition to Vehicle, Average Paw Score (Day 5, 1.5 mg/kg PO): 9%
- Average Paw Score Per Arthritis Day (All Paws) (Day 5, 1.5 mg/kg PO, group Mean): 3.15
- Average Paw Score Per Arthritis Day (All Paws) (Day 5, 1.5 mg/kg PO, individual animals, 1.5 mg/kg): 2.25 and 2.00 and 4.00 and 2.75 and 4.75
- % inhibition to Vehicle, Average Paw Score (Day 6, 1.5 mg/kg PO): 11%
- Average Paw Score Per Arthritis Day (All Paws) (Day 6, 1.5 mg/kg PO, individual animals, 1.5 mg/kg): 2.50 and 2.00 and 2.25 and 4.00 and 2.75 and 4.75
- % inhibition to Vehicle, Average Paw Score (Day 7, 1.5 mg/kg PO): 12%
- Average Paw Score Per Arthritis Day (All Paws) (Day 7, 1.5 mg/kg PO, individual animals, 1.5 mg/kg): 2.50 and 2.00 and 2.25 and 4.00 and 2.75 and 4.75
- % inhibition to Vehicle, Average Paw Score (Day 8, 1.5 mg/kg PO): 13%
- Average Paw Score Per Arthritis Day (All Paws) (Day 8, 1.5 mg/kg PO, individual animals, 1.5 mg/kg): 2.50 and 2.00 and 3.75 and 4.00 and 2.75 and 4.75
- % inhibition to Vehicle, Average Paw Score (Day 9, 1.5 mg/kg PO): 13%
- Average Paw Score Per Arthritis Day (All Paws) (Day 9, 1.5 mg/kg PO, individual animals, 1.5 mg/kg): 2.50 and 2.00 and 3.00 and 4.00 and 4.25 and 2.75 and 3.75 and 5.00
- % inhibition to Vehicle, Average Paw Score (Day 10, 1.5 mg/kg PO): 12%
- Average Paw Score Per Arthritis Day (All Paws) (Day 10, 1.5 mg/kg PO, individual animals, 1.5 mg/kg): 2.50 and 2.00 and 4.75 and 4.50 and 2.75 and 4.00 and 5.00
- % inhibition to Vehicle, Average Paw Score (Day 11, 1.5 mg/kg PO): 12%
- Average Paw Score Per Arthritis Day (All Paws) (Day 11, 1.5 mg/kg PO, individual animals, 1.5 mg/kg): 2.50 and 2.00 and 4.75 and 4.50 and 2.75 and 4.00 and 5.00
- % inhibition to Vehicle, Total AUC Sum (d1-11) (MTX 1.5 mg/kg PO): 21%
- Summed Prophylactic (Non-Enrollment) Paw Score (MTX 1.5 mg/kg PO, Day 1, group mean): 0.00
- Summed Prophylactic (Non-Enrollment) Paw Score (MTX 1.5 mg/kg PO, Day 1, individual animals): 0
- % inhibition to Vehicle, Summed Prophylactic (Non-Enrollment) Paw Score (MTX 1.5 mg/kg PO, Day 2): 38%
- Summed Prophylactic (Non-Enrollment) Paw Score (MTX 1.5 mg/kg PO, Day 2, group mean): 1.60
- Summed Prophylactic (Non-Enrollment) Paw Score (MTX 1.5 mg/kg PO, Day 2, individual animals): 0 and 2 and 1 and 5 and 4
- % inhibition to Vehicle, Summed Prophylactic (Non-Enrollment) Paw Score (MTX 1.5 mg/kg PO, Day 3): 30%
- Summed Prophylactic (Non-Enrollment) Paw Score (MTX 1.5 mg/kg PO, Day 3, group mean): 3.30
- Summed Prophylactic (Non-Enrollment) Paw Score (MTX 1.5 mg/kg PO, Day 3, individual animals): 0 and 3 and 1 and 4 and 7 and 8 and 5 and 2
- % inhibition to Vehicle, Summed Prophylactic (Non-Enrollment) Paw Score (MTX 1.5 mg/kg PO, Day 4): 20%
- Summed Prophylactic (Non-Enrollment) Paw Score (MTX 1.5 mg/kg PO, Day 4, group mean): 5.10
- Summed Prophylactic (Non-Enrollment) Paw Score (MTX 1.5 mg/kg PO, Day 4, individual animals): 3 and 4 and 1 and 6 and 10
- % inhibition to Vehicle, Summed Prophylactic (Non-Enrollment) Paw Score (MTX 1.5 mg/kg PO, Day 5): 19%
- Summed Prophylactic (Non-Enrollment) Paw Score (MTX 1.5 mg/kg PO, Day 5, group mean): 5.90
- Summed Prophylactic (Non-Enrollment) Paw Score (MTX 1.5 mg/kg PO, Day 5, individual animals): 5 and 4 and 1 and 9 and 12 and 10 and 6
- % inhibition to Vehicle, Summed Prophylactic (Non-Enrollment) Paw Score (MTX 1.5 mg/kg PO, Day 6): 21%
- Summed Prophylactic (Non-Enrollment) Paw Score (MTX 1.5 mg/kg PO, Day 6, group mean): 6.00
- Summed Prophylactic (Non-Enrollment) Paw Score (MTX 1.5 mg/kg PO, Day 6, individual animals): 6 and 4 and 1 and 9 and 12 and 10
- % inhibition to Vehicle, Summed Prophylactic (Non-Enrollment) Paw Score (MTX 1.5 mg/kg PO, Day 7): 22%
- Summed Prophylactic (Non-Enrollment) Paw Score (MTX 1.5 mg/kg PO, Day 7, group mean): 6.10
- Summed Prophylactic (Non-Enrollment) Paw Score (MTX 1.5 mg/kg PO, Day 7, individual animals): 6 and 5 and 4 and 1 and 9 and 12 and 10
- % inhibition to Vehicle, Summed Prophylactic (Non-Enrollment) Paw Score (MTX 1.5 mg/kg PO, Day 8): 22%
- Summed Prophylactic (Non-Enrollment) Paw Score (MTX 1.5 mg/kg PO, Day 8, group mean): 6.30
- Summed Prophylactic (Non-Enrollment) Paw Score (MTX 1.5 mg/kg PO, Day 8, individual animals): 6 and 5 and 4 and 2 and 10 and 12
- % inhibition to Vehicle, Summed Prophylactic (Non-Enrollment) Paw Score (MTX 1.5 mg/kg PO, Day 9): 20%
- Summed Prophylactic (Non-Enrollment) Paw Score (MTX 1.5 mg/kg PO, Day 9, group mean): 6.80
- Summed Prophylactic (Non-Enrollment) Paw Score (MTX 1.5 mg/kg PO, Day 9, individual animals): 6 and 5 and 4 and 3 and 11 and 13 and 10 and 7
- % inhibition to Vehicle, Summed Prophylactic (Non-Enrollment) Paw Score (MTX 1.5 mg/kg PO, Day 10): 16%
- Summed Prophylactic (Non-Enrollment) Paw Score (MTX 1.5 mg/kg PO, Day 10, group mean): 7.40
- Summed Prophylactic (Non-Enrollment) Paw Score (MTX 1.5 mg/kg PO, Day 10, individual animals): 6 and 5 and 4 and 14 and 10 and 8
- % inhibition to Vehicle, Summed Prophylactic (Non-Enrollment) Paw Score (MTX 1.5 mg/kg PO, Day 11): 16%
